Columns and labels:
Assay in all cases: agar dilution antimicrobial test (growth inhibition)
Format in all cases: cell-based
S. typhosa = details: read-out: Percent Growth Inhibition
Experimental: (§1) In representative activity tests, 8-quinolinesulfonyl bromide is dispersed in warm melted nutrient agar which is then poured into petri dishes and allowed to solidify, the quinoline compound being employed in an amount sufficient to provide from 10 to 500 parts by weight thereof per million parts (ppm) of the ultimate agar composition. The surface of the agar is then inoculated with a variety of bacterial and fungal pest organisms, and the inoculated plates are incubated under conditions conducive to bacterial and fungal growth. Similar check plates in which the agar contains no active quinoline or other toxic compound are similarly inoculated and incubated.
(§2) In such operations, 8-quinolinesulfonyl bromide gave 100% growth inhibition (kills) and control of the following organisms at the indicated concentrations in parts per million:
(§3) In comparative operations, 8-quinolinesulfonyl chloride was tested for antimicrobial activity at 500 ppm using identical agar dilution tests. The following table indicates the percent growth inhibition of the following organisms: […]

[1] = test system: Trichoderm Sp. Madison P-42; details: read-out: Percent Growth Inhibition
Experimental: as §1, §2, §3

P. Str-10 = details: read-out: Percent Growth Inhibition
Experimental: as §1, §2, §3

C. ips = details: read-out: Percent Growth Inhibition
Experimental: as §1, §2, §3

A. aerogenes = details: Klebsiella aerogenes, read-out: Percent Growth Inhibition
Experimental: as §1, §2, §3

C. albicans = details: Candida albicans, read-out: Percent Growth Inhibition
Experimental: as §1, §2, §3

R. nigricans = details: Rhizopus stolonifer, read-out: Percent Growth Inhibition
Experimental: as §1, §2, §3

M. phlei = details: Mycolicibacterium phlei, read-out: Percent Growth Inhibition
Experimental: as §1, §2, §3

P. pullulans = details: read-out: Percent Growth Inhibition
Experimental: as §1, §2, §3

S. aureus = details: Staphylococcus aureus, read-out: Percent Growth Inhibition
Experimental: as §1, §2, §3

E. coli = details: Escherichia coli, read-out: Percent Growth Inhibition
Experimental: as §1, §2, §3

C. pelliculosa = details: Hansenula anomala, read-out: Percent Growth Inhibition
Experimental: as §1, §2, §3

B. subtilis = details: Bacillus subtilis, read-out: Percent Growth Inhibition
Experimental: as §1, §2, §3

In the case of O=S(=O)(Cl)c1cccc2cccnc12 [8-Quinolinesulfonyl Chloride, 8-quinolinesulfonyl chloride], the inhibition at 500 ppm (S. typhosa) was 0%, the inhibition at 500 ppm [1] was 0% and the inhibition at 500 ppm (P. Str-10) was 0%. For the same molecule, the inhibition at 500 ppm (C. ips) was 0%, the inhibition at 500 ppm (A. aerogenes) was 0% and the inhibition at 500 ppm (C. albicans) was 0%. The inhibition at 500 ppm (R. nigricans) was 0%, the inhibition at 500 ppm (M. phlei) was 50% and the inhibition at 500 ppm (P. pullulans) was 0%. For the same molecule, the inhibition at 500 ppm (S. aureus) was 0%, the inhibition at 500 ppm (E. coli) was 0% and the inhibition at 500 ppm (C. pelliculosa) was 0%. For the same molecule, the inhibition at 500 ppm (B. subtilis) was 0%.
